Literature values in patent publication US20140274796A1, “Methods, Systems, and Compositions for In Vitro Concentric Cell Culture Analog Systems” (University of Central Florida Research Foundation, Inc., priority 2013, published 2014).

Key:
[1] = test system: sodium-channels of squid axon-membranes; details: literature statement [Lund 1982]
[2] = literature statement [Scollon 2009]
[3] = in vivo

SMILES	activity of stereospecific isomer [1]	metabolic rate relative to trans isoform [2]	toxicity relative to trans isomers [3]
CC1(C)C(C=C(Cl)Cl)C1C(=O)OCc1cccc(Oc2ccccc2)c1 (stereo not drawn) [1S-trans-, permethrin]	not	–	–
CC1(C)C(C=C(Cl)Cl)C1C(=O)OCc1cccc(Oc2ccccc2)c1 (stereo not drawn) [1R-cis-, permethrin]	active	–	–
CC1(C)C(C=C(Cl)Cl)C1C(=O)OCc1cccc(Oc2ccccc2)c1 (stereo not drawn) [1R-trans-, permethrin]	active	–	–
CC1(C)C(C=C(Cl)Cl)C1C(=O)OCc1cccc(Oc2ccccc2)c1 (stereo not drawn) [1S-cis-, permethrin]	not	–	–
CC1(C)C(C=C(Cl)Cl)C1C(=O)OCc1cccc(Oc2ccccc2)c1 (single isomer, unassigned) [cis isomers, permethrin]	–	much slower	about ten times more toxic than the trans isomers
